The text below walks through data of article PMC13089524, “Development of SYK NanoBRET cellular target engagement assays for gain–of–function variants” (Frontiers in chemical biology, 2024).

One experiment concerns the target T1, SYK (Homo sapiens, UniProt P43405).
T1 construct: purchased Eurofins DiscoverX (contract assay service)
The experiment is described as follows: Eurofins DiscoverX SYK enzymatic radiometric assay. Type of experiment: biochemical. The settings on record: for IC50: Km value for ATP, 9-pt dose-response.

In a further experiment the target is T2, SYK(WT)-NL (Homo sapiens, UniProt P43405).
T2 construct: SYK tracers enable BRET with full-length SYK(WT) after digitonin permeabilization; host or cells: HEK293
The experiment is described as follows: NanoBRET assay in digitonin permeabilized HEK293 cells, SYK(WT)-NL. The settings on record: C-terminal NL fusion, tracer 0.5, 1, 2 μM. Type of experiment: cell-based.

The next experiment addresses T3, SYK(KD)-NL or NL-SYK(KD) (Homo sapiens, UniProt P43405).
T3 construct: N- and C-terminally-tagged NL SYK kinase domain constructs lacking the tandem SH2 domains were prepared; expressed in transfected cells; host or cells: HEK293
Description: NanoBRET tracer optimization with SYK kinase domain only constructs. The settings on record: with or without digitonin, N- or C-terminal NL. Type of experiment: cell-based. As to the method:
HEK293 cells were transfected with constructs of SYK (WT, KD, and GoF variants) tagged with NL on the N- or C-terminus as previously described ([Wells et al., 2021]). Constructs for NanoBRET measurements of SYK(WT) (NL-SYK(WT) and SYK(WT)-NL) and SYK GoF variants (SYK(S550Y)-NL, SYK(S550F)-NL, SYK(P342T)-NL, SYK(M450I)-NL, and SYK(A353T)-NL) were kindly provided by Promega. NL orientations used in the respective assays are indicated. Cells were plated in 96-well tissue culture-treated plates (Corning, #3917) at a cell density of 2 × 10^5 cells/mL, with a total volume of 100 μL per well in DMEM +10% FBS. After 16 h, the media was aspirated from the plate and replaced with room temperature Opti-MEM without phenol red (Gibco, #11058021), 100 μL in no tracer wells; 95 μL in tracer only wells; 90 μL in no tracer wells and with digitonin treated plates, 90 μL in no tracer wells; 85 μL in tracer only wells; 80 μL in no tracer wells. Plates were incubated for 25 min at room temperature if digitonin was added or for 2 h at 37°C in 5% CO2 for the intact cell NanoBRET assay. NanoBRET plates were read after the addition of 50 μL of a stock solution (3X) containing NanoBRET NanoGlo substrate (Promega, #N2161), extracellular NanoLuc inhibitor (Promega, #N2161) when reading assay plates performed in intact live cells, and Opti-MEM without phenol red (Gibco, #11058021). For intact live cells in a 96-well plate, the 3X stock solution was prepared with 30 μL of NanoBRET NanoGlo substrate, 10 μL of extracellular NanoLuc inhibitor, and 4,960 μL of Opti-MEM without phenol red. For digitonin permeabilized live cells in a 96-well plate, the 3X stock solution was prepared with 30 μL of NanoBRET NanoGlo substrate and 4,970 μL of Opti-MEM without phenol red. Raw milliBRET units (mBU) were read on a GloMax Discover system (Promega) with a donor emission wavelength of 450 nm and an acceptor emission wavelength of 600 nm. mBU were calculated by dividing the acceptor emission values (600 nm) by the donor emission values (450 nm). For NanoBRET studies with SYK, background corrected mBU were calculated by subtracting the no tracer wells from the tracer-containing wells and multiplying by 1,000. Where the results are reported as a BRET fold change, this is the BRET ratio for the vehicle-treated sample divided by BRET for the inhibitor-treated sample.
HEK293 cells were transfected with constructs of SYK(WT) or SYK(KD) tagged with NL on the C- or N-terminus and SYK GoF variants tagged with NL on the C-terminus. Tracer 8 (20X) was prepared from a 400 μM stock solution in DMSO with tracer dilution buffer (Promega, #N291B) and 20% DMSO, with a final assay plate concentration of 1% DMSO. […]

For experiment [1], the system named is FGR, MLK1, YES, FLT3, PAK5, LYN, SRC, and LCK. The settings on record: ref Coffey et al., 2012, Spurgeon et al., 2013, cited from earlier work.

Description for SYK(WT)-NL: We performed NanoBRET tracer optimization to determine if the SYK tracers could effectively generate a BRET signal. […] To enable the NanoBRET assay using tracer 8 with cells permeabilized by digitonin, a tracer dose–response study was performed for each SYK(GoF) variant and SYK(WT) (Figure 3A), followed by tracer titration experiments (Figure 3B; Supplementary Figure S3). […] Initially, we determined the EC50 of tracer 8 for each SYK(GoF) variant and SYK(WT). […] Plates were incubated for 25 min at room temperature if digitonin was added or for 2 h at 37°C in 5% CO2 for the intact cell NanoBRET assay. […] For intact live cells in a 96-well plate, the 3X stock solution was prepared with 30 μL of NanoBRET NanoGlo substrate, 10 μL of extracellular NanoLuc inhibitor, and 4,960 μL of Opti-MEM without phenol red. For digitonin permeabilized live cells in a 96-well plate, the 3X stock solution was prepared with 30 μL of NanoBRET NanoGlo substrate and 4,970 μL of Opti-MEM without phenol red. Raw milliBRET units (mBU) were read on a GloMax Discover system (Promega) with a donor emission wavelength of 450 nm and an acceptor emission wavelength of 600 nm. mBU were calculated by dividing the acceptor emission values (600 nm) by the donor emission values (450 nm). For NanoBRET studies with SYK, background corrected mBU were calculated by subtracting the no tracer wells from the tracer-containing wells and multiplying by 1,000.
HEK293 cells were transfected with constructs of SYK(WT) or SYK(KD) tagged with NL on the C- or N-terminus and SYK GoF variants tagged with NL on the C-terminus. Tracer 8 (20X) was prepared from a 400 μM stock solution in DMSO with tracer dilution buffer (Promega, #N291B) and 20% DMSO, with a final assay plate concentration of 1% DMSO. 5 μL of 8 (20X) was added to each well, with exception of the no tracer control wells, with final plate concentrations of 0.5, 1, and 2 μM. 10 μL of digitonin (Fisher, 10X, 500 μg/mL) was added to specific wells to permeabilize the cells. The 10X digitonin stock was prepared by diluting a 40X DMSO solution of digitonin with room temperature Opti-MEM without phenol red, for a final assay plate concentration of 1% DMSO. SYK inhibitor stock solutions of MRL-SYKi (10X) were prepared from 10 mM DMSO stock solutions with room temperature Opti-MEM without phenol red, for final assay plate concentrations of 10 μM. Plates were incubated for 25 min at room temperature if digitonin was added or for 2 h at 37°C in 5% CO2 for the intact cell NanoBRET assay. Two technical replicates were plotted in a bar chart with the standard deviation represented as error bars on Graphpad Prism.

Regarding `O=C(CCc1ccc2n1[B-](F)(F)[N+]1=C(c3ccc[nH]3)C=CC1=C2)NCCOCCOCCOCCC(=O)N1CCN(c2ccc(Nc3nc(-c4ccc5cn[nH]c5c4)cn4ccnc34)cc2)CC1` [Tracer 2], the IC50 at SYK came to 2400 nM. The “BRET signal (background subtracted)” value on SYK(WT)-NL amounted to 4 mBU. In addition, the BRET signal entry on SYK(KD)-NL or NL-SYK(KD) is “did not generate a BRET signal”.
The compound `Cn1ncc2ccc(-c3cn4ccnc4c(Nc4ccc(N5CCNCC5)cc4)n3)cc21` [Tracer 3] yielded an IC50 against SYK of 97 nM.
The compound `Cn1ncc2ccc(-c3cn4ccnc4c(Nc4ccc(N5CCN(C(=O)CCc6ccc7n6[B-](F)(F)[N+]6=C(c8ccc[nH]8)C=CC6=C7)CC5)cc4)n3)cc21` [Tracer 4] returned an IC50 on SYK above 10000 nM. Further, at SYK(WT)-NL, the “BRET signal (background subtracted)” value is listed as “did not generate a BRET signal”. Moreover, the BRET signal result on SYK(KD)-NL or NL-SYK(KD) is “did not generate a BRET signal”.
Consider `CC1(C)Oc2ccc(Nc3nc(Nc4cccc(OCC(=O)NCCOCCOCCOCCNC(=O)CCc5ccc6n5[B-](F)(F)[N+]5=C(c7ccc[nH]7)C=CC5=C6)c4)ncc3F)nc2NC1=O` [Tracer 5], for which the IC50 at SYK is 1100 nM. On SYK(WT)-NL, the “BRET signal (background subtracted)” value is above 10 mBU. Besides, the BRET signal result on SYK(KD)-NL or NL-SYK(KD) is given as “did not generate a BRET signal”.
For `CC1(C)Oc2ccc(Nc3nc(Nc4cccc(OCC(=O)NCCNC(=O)CCc5ccc6n5[B-](F)(F)[N+]5=C(c7ccc[nH]7)C=CC5=C6)c4)ncc3F)nc2NC1=O` [Tracer 6] the same measures were 1400 nM, above 10 mBU and “did not generate a BRET signal”.
`Cc1cc(Nc2nccc(C)n2)cc(-c2cnc([C@@]3(O)CC[C@H](C(=O)NCCOCCOCCOCCNC(=O)CCc4ccc5n4[B-](F)(F)[N+]4=C(c6ccc[nH]6)C=CC4=C5)C(C)(C)C3)s2)c1` [Tracer 7]: half-maximal inhibition against SYK (IC50) required 470 nM. Besides, at SYK (ratio of enzymatic IC50), the “decrease in potency compared to the parent inhibitor MRL-SYKi” value came out at 15.6 fold. Moreover, on SYK(WT)-NL, the “BRET signal (background subtracted)” value is listed as above 10 mBU.
As to `NC(=O)c1cnc(N[C@@H]2CCCC[C@@H]2N)nc1Nc1cccc(-n2nccn2)c1` [Tracer P505-15], the “inhibition of eight kinases” value in experiment [1] (at 300 nM) is recorded as “greater than 80%”. Moreover, the IC50 in experiment [1] (dose-response, read-out: enzymatic IC50 of the closest off-target) is 81 nM. The “closest off-target less potent compared to SYK” value in experiment [1] is reported as 81 fold.
